From patent EP2813571A1, “Method for the treatment of lung cancer” (Institut d'Investigació Biomèdica de Bellvitge (IDIBELL), priority 2013, dated 2014)

Assays:
[1] = tested on: CL1-5 cells; conditions: Lin and Wang 2007; cited from earlier work
[2] = tested on: CL1-5; conditions: Lin and Wang 2007; cited from earlier work
[3] = tested on: SETDB1 protein; assay: Western blot for SETDB1 protein after drug treatment of SETDB1 amplified lung cancer cell lines; assay type: cell-based, human; conditions: DMS-273, NCI-H1437 and NCI-H1395
Procedure: (§1) • Figure 1. Determination of SETDB1 gene amplification and its association with RNA and protein overexpression in lung cancer cell lines. (A) Assessment of SETDB1 copy number by quantitative genomic PCR. Amplification frequency of SETDB1 (evaluated with SYBR Green) was calculated by the standard curve method using the 7900HT SDS program. To define an internal control gene chromosome 1p36.23 was chosen because it is the least aneuploid region among our cell lines (PEX19 gene). DNA from normal lung was used as the reference standard. Results are reported as n-fold copy number increase relative to the PEX19 gene. […] The internal control gene was ACTB (beta-actin). • Figure 2. Growth-promoting effects of SETDB1 in lung cancer. (A) Stable down-regulation of the SETDB1 gene by short hairpins using two different target sequences for DMS-273 (clones A30/A31 and clone B32-63) and NCI-H1437 (clones A56-B and B46-9). […] Tumor volume was monitored over time and the tumor was excised and weighed at 30 days. […] (A) Effect of SETDB1 on the invasion potential of A549 cells determined by the matrigel invasion assay. […] Invasive cells were counted using ImageJ 1.45s (Wayne Rasband, National Institutes of Health, USA) and the percentage of invasive cells was represented. Results are the mean of at least three experiments by duplicate and the significance was determined using ANOVA-test. *p<0.05. […]

[4] = tested on: NCI-H1299; assay: MTT cell viability assay; assay type: cell-based; conditions: Homo sapiens, SETDB1 non-amplified cell line NCI-H1299
Procedure: as §1

[5] = tested on: NCI-H1437; assay: MTT cell viability assay; assay type: cell-based; conditions: Homo sapiens, SETDB1 amplified cell line NCI-H1437
Procedure: as §1

[6] = tested on: H647; conditions: Lin and Wang 2007; cited from earlier work
[7] = tested on: DMS-114; assay: MTT cell viability assay; assay type: cell-based; conditions: Homo sapiens, SETDB1 non-amplified cell line DMS-114
Description: (§2) The observation that the presence of the SETDB1 gene amplification with associated overexpression was critical for the tumorigenesis of these lung cancer cells prompted the inventors to examine whether drugs targeting this pathway might find a therapeutic "niche" for their use in the described subset of cases with extra copies of this gene. No highly specific inhibitor for SETDB1 has been described in the publicly available literature, but one agent-mithramycin- is a clinically approved anti-tumor antibiotic that binds to DNA by interacting with the minor groove and displacing transcriptional activators that bind to GC-rich binding sites. Thus, the inventors tested whether a putative growth-inhibitory effect of this drug in lung cancer cells was dependent on SETDB1 expression. First, western blot analyses for the SETDB1 protein in the SETDB1 amplified lung cancer cell lines DMS-273, NCI-H1437 and NCI-H1395 upon the use of the drug were developed. […] Experiments for each clone were performed in triplicate. Furthermore, we extended the cell viability experiments, using the MTT assay, to the other two SETDB1 amplified lung cancer cell lines (NCI-H1437 and NCI-H1395) and to three SETDB1 non-amplified lung cancer cell lines (DMS-114, A549 and NCI-H1299). […] Thus, the presence of SETDB1 gene amplification could "mark" lung cancer cells that are more sensitive to the inhibition of cell viability associated with the use of mithramycin.

[8] = tested on: NCI-H1395; assay: MTT cell viability assay; assay type: cell-based; conditions: Homo sapiens, SETDB1 amplified cell line NCI-H1395
Description: as §2

[9] = tested on: A549; assay: MTT cell viability assay; assay type: cell-based; conditions: Homo sapiens, SETDB1 non-amplified cell line A549
Description: as §2

[10] = tested on: DMS-273; assay: MTT cell viability assay; assay type: cell-based, human; conditions: scramble shRNA DMS-273 cells compared with SETDB1-depleted clones; triplicate
Procedure: as §1

CO[C@H](C(=O)[C@@H](O)[C@@H](C)O)[C@@H]1Cc2cc3cc(O[C@H]4C[C@@H](O[C@H]5C[C@@H](O)[C@H](O)[C@@H](C)O5)[C@H](O)[C@@H](C)O4)c(C)c(O)c3c(O)c2C(=O)[C@H]1O[C@H]1C[C@@H](O[C@H]2C[C@@H](O[C@H]3C[C@](C)(O)[C@H](O)[C@@H](C)O3)[C@H](O)[C@@H](C)O2)[C@H](O)[C@@H](C)O1 [mithramycin, (1S)-5-deoxy-1-C-((2S,3S)-7-{[2,6-dideoxy-3-O-(2,6-dideoxy-β-D-arabino-hexopyranosyl)-β-D-arabino-hexopyranosyl]oxy}-3-{[2,6-dideoxy-3-C-methyl-β-D-ribo-hexopyranosyl-(1→3)-2,6-dideoxy-β-D-arabino-hexopyranosyl-(1→3)-2,6-dideoxy-β-D-arabino-hexopyranosyl]oxy}-5,10-dihydroxy-6-methyl-4-oxo-1,2,3,4-tetrahydroanthracen-2-yl)-1-O-methyl-D-xylulose]
invasion phenotypes [1]: inhibiting the invasion phenotypes | growth of human lung cancer cell lines [2]: inhibiting the growth | SETDB1 expression [3]: inhibit SETDB1 expression | EC50 [4]: 0.032 µM | EC50 [5]: 0.0136 µM | growth of human lung cancer cell lines [6]: inhibiting the growth | EC50 [7]: 0.348 µM | EC50 [8]: 0.0147 µM | EC50 [9]: 0.122 µM | sensitivity to the growth-inhibitory effect [10]: significantly more sensitive
